Where two headings read alike, the source gives them in different places.
Test: Titration of dispersed solid with sodium hydroxide (pKa from titration curve)
Format: physicochemical
Settings: for pKa: dispersion of the solid in deionized water
Description: The Comparative Compound (1.0 g) was dispersed in deionized water (199 mL) using a shear mixer/emulsifier (Silverson Model L4R, Silverson Machines, Ltd., Waterside, Chesham, Bucks, England) for approximately 5 minutes. Cresol red indicator (0.04 weight percent in water; 4 drops) was added to aid in end point detection. Samples were titrated (using a 50 mL buret with 0.1 mL graduation) with rapid stirring to maintain suspension of dispersed solid in the liquid medium (0.1 N analytical standard grade sodium hydroxide from Mallinckrodt Baker, Phillipsburg, N.J.) over a period of 1-3 hours. The dispersion became clear after 2 equivalents of base had been added, indicating conversion of the Comparative Compound to a compound corresponding to the righthand structure above. […] At higher concentrations, a liquid crystalline phase potentially useful for encapsulation of guest molecules is formed between a pH of about 7 and a pH of about 8. This phase forms at a steep end point transition of the titration curve, where even a small addition of base caused a significant change in pH (indicating a need for careful monitoring and control of the amount of base addition for use of the Comparative Compound in, for example, the encapsulation of pH-sensitive guest molecules).
(§1) Folic acid (1.0 g) was dispersed in deionized water (199 mL) using a Silverson L4R shear mixer/emulsifier for approximately 5 minutes. Cresol red indicator (0.04 weight percent in water; 4 drops) was added to aid in end point detection. Samples were titrated (using a 50 mL buret with 0.1 mL graduation) with rapid stirring to maintain suspension of dispersed solid in the liquid medium during the addition of base (0.1 N analytical standard grade sodium hydroxide from Mallinckrodt Baker, Phillipsburg, N.J.). The dispersion became clear after 2 equivalents of base had been added.
as §1, with “(2.0” for “(1.0”, “(198” for “(199”, “(0.2” for “(0.1”

[1] = 0.5 weight percent dispersion in deionized water, 0.1 N NaOH

pKa (0.5 weight percent dispersion in deionized water, 0.1 N NaOH, read-out: first pKa)	pKa (0.5 weight percent dispersion in deionized water, 0.1 N NaOH, read-out: second pKa)	pKa (1 weight percent dispersion in deionized water, 0.2 N NaOH, read-out: first pKa)	pKa (1 weight percent dispersion in deionized water, 0.2 N NaOH, read-out: second pKa)	SMILES	first pKa [1]	second pKa [1]
–	–	–	–	Cn1cc[n+](-c2nc(Nc3ccc(C(=O)O)cc3)nc(Nc3ccc(C(=O)O)cc3)n2)c1.[Cl-] [Comparative Compound]	about 3.2	about 5.8
~5.8	~5.8	~6.1	~6.1	Nc1nc(=O)c2nc(CNc3ccc(C(=O)N[C@@H](CCC(=O)O)C(=O)O)cc3)cnc2[nH]1 [Folic acid]	–	–

Source: patent publication US20100028420A1, “CONTROLLED RELEASE COMPOSITION AND PROCESS” (3M Innovative Properties Company, priority 2006, published 2010)
